The record followed here is patent publication US20250214969A1, “PROTEIN DEGRADERS AND USES THEREOF” (Kymera Therapeutics, Inc., priority 2022, published 2025).

Broadly, the IC50 is the concentration that gives 50% inhibition.

The target in assay [1] is T1, truncated His-MBP-Tev-KLHDC2 (residues 1-363) (Homo sapiens, UniProt Q9Y2U9).
T1 construct: truncated His -MBP-Tev-KLHDC2 (residues 1-363) purified from E. coli; made in house; host or cells: E. coli
T1 sequence (Q9Y2U9 1-363): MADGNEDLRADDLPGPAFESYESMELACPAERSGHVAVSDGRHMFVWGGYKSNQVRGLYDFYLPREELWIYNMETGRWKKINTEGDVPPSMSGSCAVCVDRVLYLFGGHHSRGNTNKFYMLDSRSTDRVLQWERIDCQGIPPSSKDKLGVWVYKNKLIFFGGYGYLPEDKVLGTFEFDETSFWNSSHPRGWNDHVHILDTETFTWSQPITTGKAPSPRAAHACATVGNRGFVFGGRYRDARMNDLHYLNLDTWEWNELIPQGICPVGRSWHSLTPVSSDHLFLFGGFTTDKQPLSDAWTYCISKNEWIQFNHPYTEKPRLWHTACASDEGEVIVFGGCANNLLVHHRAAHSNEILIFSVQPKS
The experiment in a line: KLHDC2 FP competition binding assay. Particulars: 15 nM KLHDC2 (residues 1-363), 10 nM fluorescein-labeled diglycine peptide probe, read-out: KLHDC2 binding Human FP: average external IC50.
Procedure: FP competition binding assays were performed using 15 nM truncated His -MBP-Tev-KLHDC2 (residues 1-363) purified from E. coli, 10 nM fluorescein-labeled diglycine peptide probe, and test compounds in assay buffer consisting of 50 mM HEPES-Na pH 7.5, 100 mM NaCl, 2 mM DTT, 0.005% Tween-20 with a final volume of 20 uL. Compound stocks were dissolved at 10 mM in 100% DMSO and 11 point titration with 3 fold serial dilution was performed in black, flat bottom 384 well microplates. Plates were incubated at room temperature for 30 minutes. Plates were centrifuged at 1000 rpm for 1 min, data were collected using an Envision plate reader in fluorescence polarization mode with excitation filter FITC FP at 480 nm, emission filter FITC FP P-pol at 535 nm and FITC FP S-pol at 535 nm. FP signal was calculated using the equation (mP=1000*(S-G*P)/(S+G*P), G-factor=1.0) and % Inhibition was calculated using no-protein controls for 100% inhibition and DMSO only reactions for 0l % inhibition (yes).

The target in assay [2] is T1, truncated His-MBP-Tev-KLHDC2 (residues 1-363). The experiment in a line: KLHDC2 HTRF binding assay. To be noted: 1 nM KLHDC2 (residues 1-363), fluorescein-labeled diglycine peptide probe.

On to `N#Cc1ccc(OCC(=O)Nc2ccc(=O)n(CC(=O)O)c2)cc1` [I-270], for which the IC50 in assay [1] and in assay [2] was greater than 5 µM throughout.
As to `O=C(O)CN1CC(NC(=O)c2ccccc2)CCC1=O` (stereo not drawn) [I-271], the IC50 in assay [1] and in assay [2] was greater than 5 µM in each case.
Regarding `CN(C(=O)Cc1ccc(=O)n(CC(=O)O)c1)c1ccccc1` [I-272], the IC50 in assay [1] and in assay [2] was greater than 5 µM in each case.
Take `COc1ccccc1OCC(=O)Nc1ccc(=O)n(CC(=O)O)c1` [I-273]: the IC50 in assay [1] and in assay [2] was greater than 5 µM in each case.
In the case of `O=C(O)Cn1cc(NC(=O)c2cccc(-c3ccccc3)n2)ccc1=O` [I-274], the IC50 in assay [1] and in assay [2] was greater than 5 µM in each case.
On to `Cc1ccc(-c2cccc(C(=O)Nc3ccc(=O)n(CC(=O)O)c3)c2)cc1` [I-275], for which the IC50 in assay [1] was greater than 5 µM; in assay [2], 0.5 to 5 µM.
With `O=C(O)Cn1cc(NC(=O)c2cccc(-c3ccc(F)cc3)c2)ccc1=O` [I-276], the IC50 in assay [1] is greater than 5 µM; in assay [2], 0.5 to 5 µM.
For `O=C(O)Cn1cc(CC(=O)N2CCc3ccccc32)ccc1=O` [I-277] the same measures were greater than 5 µM and greater than 5 µM.
As to `O=C(O)Cn1cc(NC(=O)COc2ccc(Cl)cc2)ccc1=O` [I-278], the IC50 in assay [1] and in assay [2] was greater than 5 µM each time.
Regarding `O=C(O)Cn1cc(NC(=O)COc2ccccc2F)ccc1=O` [I-279], the IC50 in assay [1] and in assay [2] was greater than 5 µM in each case.
`O=C(O)Cn1cc(NC(=O)c2cccc(-c3ccncc3)c2)ccc1=O` [I-280]: the IC50 in assay [1] and in assay [2] was greater than 5 µM throughout.
For `O=C(O)Cn1cc(NC(=O)c2cccc(-c3cccnc3)c2)ccc1=O` [I-281], the IC50 in assay [1] and in assay [2] was 0.5 to 5 µM each time.
Regarding `O=C(O)Cn1cc(NC(=O)COc2ccccc2Cl)ccc1=O` [I-282], the IC50 in assay [1] and in assay [2] was greater than 5 µM in each case.
Consider `O=C(O)Cn1cc(NC(=O)COc2ccc(F)cc2)ccc1=O` [I-283], for which the IC50 in assay [1] and in assay [2] was greater than 5 µM each time.
For the compound `CN(C)C(=O)Cc1ccc(=O)n(CC(=O)O)c1` [I-284], the 50% inhibitory concentration (IC50) in assay [1] and in assay [2] was greater than 5 µM each time.
For the compound `O=C(O)Cn1cc(-c2cncc(CCc3ccccc3)c2)ccc1=O` [I-285], the IC50 in assay [1] and in assay [2] was greater than 5 µM in each case.
Take `CN(C(=O)c1ccccc1)c1ccc(=O)n(CC(=O)O)c1` [I-286]: the IC50 in assay [1] and in assay [2] was greater than 5 µM each time.
As for `O=C(O)Cn1cc(-c2cncc(/C=C/c3ccccc3)c2)ccc1=O` [I-287], the IC50 in assay [1] and in assay [2] was greater than 5 µM each time.
With `O=C(O)Cn1cc(NC(=O)c2cccc(-c3ccccc3F)c2)ccc1=O` [I-288], the IC50 in assay [1] and in assay [2] was greater than 5 µM in each case.
Consider `Cc1ccccc1-c1cccc(C(=O)Nc2ccc(=O)n(CC(=O)O)c2)c1` [I-289], for which the IC50 in assay [1] and in assay [2] was greater than 5 µM in each case.
Consider `O=C(O)Cn1cc(CC(=O)N2CCCCC2)ccc1=O` [I-290], for which the IC50 in assay [1] and in assay [2] was greater than 5 µM throughout.
As for `O=C(O)Cn1cc(-c2cccc(CO)c2)ccc1=O` [I-291], the IC50 in assay [1] and in assay [2] was greater than 5 µM in each case.
Regarding `COc1cccc(-c2cccc(C(=O)Nc3ccc(=O)n(CC(=O)O)c3)c2)c1` [I-292], the IC50 in assay [1] and in assay [2] was greater than 5 µM in each case.
Consider `O=C(O)Cn1cc(NC(=O)c2cccc(-c3cccc(Cl)c3)c2)ccc1=O` [I-293], for which the IC50 in assay [1] was greater than 5 µM; in assay [2] it was 0.5 to 5 µM.
As for `Cc1cccc(-c2cccc(C(=O)Nc3ccc(=O)n(CC(=O)O)c3)c2)c1` [I-294], the half-maximal inhibitory concentration (IC50) in assay [1] and in assay [2] was greater than 5 µM throughout.
As for `O=C(O)Cn1cc(-c2cccc(CCc3ccccc3)c2)ccc1=O` [I-295], the IC50 in assay [1] and in assay [2] was greater than 5 µM each time.
For the compound `O=C(O)Cn1cc(-c2cccc(/C=C/c3ccccc3)c2)ccc1=O` [I-296], the IC50 in assay [1] and in assay [2] was greater than 5 µM throughout.
As for `Cc1cc(C(=O)Nc2ccc(=O)n(CC(=O)O)c2)sc1-c1ccccc1` [I-297], the values for the IC50 in assay [1] and in assay [2] were greater than 5 µM and 0.5 to 5 µM, respectively.
For `O=C(O)Cn1cc(NC(=O)c2cccc(-c3cccc(F)c3)c2)ccc1=O` [I-298], the IC50 in assay [1] and in assay [2] was greater than 5 µM throughout.
On to `O=C(O)Cn1cc(CNC(=O)c2ccccc2)ccc1=O` [I-299], for which the half-maximal inhibitory concentration (IC50) in assay [1] and in assay [2] was greater than 5 µM each time.
As for `O=C(O)Cn1cc(-c2cccc(OCc3ccccc3)c2)ccc1=O` [I-300], the IC50 in assay [1] and in assay [2] was greater than 5 µM each time.
As for `O=C(O)Cn1cc(-c2cncc(OCc3ccccc3)c2)ccc1=O` [I-301], the IC50 in assay [1] and in assay [2] was greater than 5 µM each time.
For `NC(=O)Cc1cccc(-c2ccc(=O)n(CC(=O)O)c2)c1` [I-302], the IC50 in assay [1] and in assay [2] was greater than 5 µM throughout.
Regarding `O=C(O)Cn1cc(-c2cccc(CN3CCCCC3)c2)ccc1=O` [I-303], the IC50 in assay [1] and in assay [2] was greater than 5 µM throughout.
Consider `O=C(O)Cn1cc(-c2cccc(CN3CCOCC3)c2)ccc1=O` [I-304], for which the IC50 in assay [1] and in assay [2] was greater than 5 µM throughout.
Consider `CN1CCN(Cc2cccc(-c3ccc(=O)n(CC(=O)O)c3)c2)CC1` [I-305], for which the IC50 in assay [1] and in assay [2] was greater than 5 µM throughout.
For the compound `O=C(O)Cn1cc(CC(=O)Nc2ccccc2)ccc1=O` [I-306], the IC50 in assay [1] and in assay [2] was greater than 5 µM throughout.
As for `O=C(O)Cn1cc(N2Cc3ccccc3C2=O)ccc1=O` [I-307], the IC50 in assay [1] and in assay [2] was greater than 5 µM in each case.
`Cc1ccc(CC(C)(C)O)cc1-c1ccc(=O)n(CC(=O)O)c1` [I-308]: the IC50 in assay [1] and in assay [2] was greater than 5 µM in each case.
As to `Cc1c(Cl)cccc1OCC(=O)Nc1ccc(=O)n(CC(=O)O)c1` [I-309], the IC50 in assay [1] was greater than 5 µM; in assay [2] it was 0.5 to 5 µM.
For the compound `CC(Cc1ccccc1Cl)C(=O)Nc1ccc(=O)n(CC(=O)O)c1` (stereo not drawn) [I-310], the IC50 in assay [1] and in assay [2] was greater than 5 µM in each case.
Regarding `O=C(O)Cn1cc(NC(=O)c2ccc(-c3ccccc3)c(F)c2)ccc1=O` [I-311], the IC50 in assay [1] was greater than 5 µM; in assay [2], 0.5 to 5 µM.
As for `O=C(O)Cn1cc(-c2ccc(N3CCOCC3)cc2)ccc1=O` [I-312], the IC50 in assay [1] and in assay [2] was greater than 5 µM throughout.
Regarding `NC(=O)Cc1ccc(-c2ccc(=O)n(CC(=O)O)c2)cc1` [I-313], the IC50 in assay [1] and in assay [2] was greater than 5 µM each time.
On to `O=C(O)Cn1cc(-c2cccc(N3CCCCC3)c2)ccc1=O` [I-314], for which the IC50 in assay [1] and in assay [2] was greater than 5 µM throughout.
In the case of `O=C(O)Cn1cc(NC(=O)c2cccc(-c3ccccc3)c2)ccc1=O` [I-315], the IC50 in assay [1] is greater than 5 µM; in assay [2] it was 0.5 to 5 µM.
Take `Cc1cc(=O)n(CC(=O)O)cc1NC(=O)c1ccccc1` [I-316]: the IC50 in assay [1] and in assay [2] was greater than 5 µM throughout.
Regarding `O=C(O)Cn1cc(NS(=O)(=O)c2ccccc2)ccc1=O` [I-317], the IC50 in assay [1] and in assay [2] was greater than 5 µM throughout.
As to `CCc1ccccc1C(=O)Nc1ccc(=O)n(CC(=O)O)c1` [I-318], the IC50 in assay [1] and in assay [2] was greater than 5 µM each time.
For the compound `Cc1cccc(Cl)c1C(=O)Nc1ccc(=O)n(CC(=O)O)c1` [I-319], the IC50 in assay [1] and in assay [2] was greater than 5 µM throughout.
For the compound `COc1cc2ccccc2cc1C(=O)Nc1ccc(=O)n(CC(=O)O)c1` [I-320], the IC50 in assay [1] and in assay [2] was greater than 5 µM each time.
Take `O=C(O)Cn1cc(NC(=O)c2ccccc2C(F)F)ccc1=O` [I-321]: the IC50 in assay [1] and in assay [2] was greater than 5 µM throughout.
Take `O=C(O)Cn1cc(-c2cccc(N3CCOCC3)c2)ccc1=O` [I-322]: the IC50 in assay [1] and in assay [2] was greater than 5 µM in each case.
Turning to `Cc1cc(-c2ccc(=O)n(CC(=O)O)c2)ccc1OCc1ccccc1` [I-323], the IC50 in assay [1] and in assay [2] was greater than 5 µM throughout.
Consider `N#Cc1cccc(-c2ccc(=O)n(CC(=O)O)c2)c1` [I-324], for which the IC50 in assay [1] and in assay [2] was greater than 5 µM each time.
`O=C(O)Cc1cccc(NC(=O)c2ccccc2)c1` [I-325]: the IC50 in assay [1] and in assay [2] was greater than 5 µM in each case.
With `O=C(O)Cn1cc(/C=C/c2ccccc2)ccc1=O` [I-326], the IC50 in assay [1] and in assay [2] was greater than 5 µM each time.
In the case of `COc1ccc(-c2ccc(=O)n(CC(=O)O)c2)cn1` [I-327], the IC50 in assay [1] and in assay [2] was greater than 5 µM in each case.
`O=C(O)Cn1cc(NC(=O)C(c2ccccc2)c2ccccc2)ccc1=O` [I-328]: the IC50 in assay [1] and in assay [2] was greater than 5 µM in each case.
Consider `Cc1cc(=O)n(CC(=O)O)cc1-c1cc(F)c(O)c(F)c1` [I-329], for which the IC50 in assay [1] and in assay [2] was greater than 5 µM throughout.
As to `Cc1ccc(C)c(-c2cn(CC(=O)O)c(=O)cc2C)c1` [I-330], the IC50 in assay [1] and in assay [2] was greater than 5 µM throughout.
As to `CC(C)=Cc1cccc(-c2ccc(=O)n(CC(=O)O)c2)c1` [I-331], the IC50 in assay [1] and in assay [2] was greater than 5 µM throughout.
In the case of `Nc1ccc(-c2ccc(=O)n(CC(=O)O)c2)cc1` [I-332], the IC50 in assay [1] and in assay [2] was greater than 5 µM each time.
